In PMC8704891, “Natural Benzo/Acetophenones as Leads for New Synthetic Acetophenone Hybrids Containing a 1,2,3-Triazole Ring as Potential Antifouling Agents” (Marine Drugs, 2021):
Entries after “also recorded” stand apart in the source; their conditions may differ. Like-named read-outs stand apart in the source and are kept apart here.

Key:
Ulva pertusa = system: Ulva pertusa; parameters: method as in doi:10.3989/scimar.04638.13A; conditions: cited from earlier work
Artemia salina nauplii [1] = test: Artemia salina nauplii lethality ecotoxicity bioassay; type: in vivo; conditions: 25 and 50 μM, 48 h exposure
Method: The brine shrimp (Artemia salina) nauplii lethality test was used to determine the ecotoxicity of 6a, 7a, and 9a to non-target organisms. Briefly, Artemia salina eggs were allowed to hatch in seawater for 48 h at 25 °C. Bioassays were performed in 96-well microplates with 15–20 nauplii per well and 200 μL of the compounds test solution. Test solutions were prepared in filtered seawater at concentrations of 25 and 50 μM. All tests included K2Cr2O7 as positive control and DMSO as a negative control. Bioassays run in the dark at 25 °C, and the percentage of mortality was determined after 48 h of exposure.

Navicula sp. = test: Biofilm-forming marine diatom growth inhibition; type: cell-based; conditions: for EC50: dose-response
Method: The anti-microalgal activity of the most promising compounds was also evaluated against a benthic marine diatom, Navicula sp., purchased from the Spanish Collection of Algae (BEA), according to the previously reported. Briefly, diatom cells were inoculated in f/2 medium (Sigma) at an initial concentration of 2–4 × 10^6 cells·mL^−1 and grown in 96-well flat-bottom microtiter plates for 14 days in continuous light at 20 °C. […] Growth inhibition was calculated based in the formula ((Mc–Mt)/Mc) × 100, where Mc is the mean of the cell counts of the four replicates from negative control, and Mt is the mean of the cell counts of the four replicates from each of the tested compounds. Positive control with cycloheximide (3.55 μM) and negative control with f/2 medium 0.1% DMSO were included.
(§1) Data from anti-settlement, antibacterial, and anti-microalgal bioassay were analyzed by one-way analysis of variance (ANOVA), followed by a multi-comparisons Dunnett’s test against negative control. For all of the bioassays, the half-maximum response concentration (EC50) values for each compound, when applicable, were calculated using probit regression analysis. Significance was considered at p < 0.01, and 95% lower and upper confidence limits (95% LCL; UCL). The software IBM SPSS Statistics 26 (Armonk, New York, NY, USA) was used for statistical analysis.

[2] = system: Mytilus galloprovincialis plantigrade larvae; test: Mussel larvae anti-settlement bioassay; type: in vivo; conditions: for EC50: Mytilus galloprovincialis, dose-response 3.125-200 μM; for percentage of settlement: screening at 50 μM, 15 h
Method: (§2) Mussel (Mytilus galloprovincialis) plantigrades were collected in juvenile aggregates during low neap tides at Memória beach, Matosinhos, Portugal (41°13′59″ N; 8°43′28″ W). In the laboratory, mussel plantigrade larvae (0.5–2 mm) were isolated in a binocular magnifier (Olympus SZX2-ILLT, Tokyo, Japan) to a petri dish with filtered seawater, and those with functional foot and competent exploring behavior were selected to the bioassays. Compounds were screened at 50 µM in 24-well microplates with 4-well replicates per condition and 5 larvae per well, for 15 h, in the darkness at 18 ± 1 °C, according to the previously reported. All compounds that caused more than 60% of settlement inhibition (≤40% of settlement) in the screening bioassay were considered active and selected for the determination of the semi-maximum response concentration that inhibited 50% of the larval settlement (EC50), at compounds concentrations of 3.125, 6.25, 12.5, 25, 50, 100, and 200 μM.
as §1

[3] = Mussel larvae anti-settlement bioassay; type: in vivo; conditions: Mytilus galloprovincialis (mussel) plantigrade larvae, in vivo; mussel plantigrade larvae; highest concentration tested 200 μM; read-out: LC50 (µM), median lethal dose
Method: as §2, §1

[4] = system: Roseobacter litoralis CECT 5395; test: Biofilm-forming marine bacteria growth inhibition; type: cell-based; conditions: for EC50: Roseobacter litoralis, CECT5395; for R. litoralis biofilm growth inhibition: screening at 15 μM, 24 h, vs negative control (Dunnett, p < 0.01)
Method: Five strains of marine biofilm-forming bacteria from the Spanish Type Culture Collection (CECT): Cobetia marina CECT 4278, Vibrio harveyi CECT 525, Halomonas aquamarina CECT 5000, Pseudoalteromonas atlantica CECT 570, and Roseobacter litoralis CECT 5395 were selected for antibacterial screening. The experimental procedure was performed according to the previously reported. Briefly, bacteria were inoculated and incubated for 24 h at 26 °C in marine broth (Difco) at an initial density of 0.1 (OD600) in 96-well flat-bottom microtiter plates and exposed to the test compounds at 15 μM. Bacterial growth inhibition in the presence of the compounds was determined in quadruplicate at 600 nm using a microplate reader (BioTek Synergy HT, Winooski, VT, USA). Negative and positive controls used were a solution of marine broth with 0.1% DMSO, and a solution of marine broth with penicillin–streptomycin–neomycin, respectively. Bacterial growth inhibition calculations were made based in the formula ((Mc–Mt)/Mc) × 100, where Mc is the mean of the four replicates from negative control, and Mt is the mean of four replicates from each of the tested compounds.
as §1

Artemia salina nauplii [5] = system: Artemia salina nauplii; parameters: method as in PMID 31669574; conditions: 25 and 50 μM; cited from earlier work
[6] = 95% CI in brackets, read-out: EC50 (µM), concentration that inhibited 50% of larval settlement
[7] = dose-response, read-out: EC50 (µM), R. litoralis growth
[8] = dose-response, read-out: EC50 (µg·mL^−1), R. litoralis growth

For CC(=O)c1ccc(O)cc1O [2,4-dihydroxyacetophenone], the “inhibition of spore attachment” value (Ulva pertusa) is given as “significantly inhibit”.

For COc1ccc(-n2cc(COc3c(OC)cc(C(C)=O)cc3OC)nn2)cc1 [Compound 8a, 1-(3,5-Dimethoxy-4-((1-(4-methoxyphenyl)-1H-1,2,3-triazol-4-yl)methoxy)phenyl)ethan-1-one], the melting point was 99.5 to 102.3 °C.

For COc1cc(C(C)=O)cc(OC)c1OCc1cn(CCCO)nn1 [Compound 7a, 1-(4-((1-(3-Hydroxypropyl)-1H-1,2,3-triazol-4-yl)methoxy)-3,5-dimethoxyphenyl)ethan-1-one], the “mortality rate of Artemia salina nauplii” value (Artemia salina nauplii [1]) was “not significantly different from negative control; also recorded: non-toxic”, the “Navicula sp. growth inhibition screening” value (Navicula sp.; 15 µM (Figure 5 legend), 14 days) was “showed inhibitory activity” and the EC50 (Navicula sp.; read-out: EC50 (µM), Navicula sp. growth) was 26.7 µM. It also gave an EC50 (Navicula sp.; read-out: EC50 (µg·mL^−1), Navicula sp. growth) of 8.96 µg/mL, an EC50 [2, 6] of 40.1 µM and an EC50 ([2]; read-out: EC50 (µg·mL^−1), larval settlement) of less than 25 µg/mL. It also gave a percentage of settlement [2] of no more than 40% and an LC50 at 15 h [3] greater than 200 µM.

For COc1cc(C(C)=O)cc(OC)c1OCc1cn([C@H]2O[C@@H](CO)[C@H](O)[C@@H](O)[C@@H]2NC(C)=O)nn1 [Compound 9a, N-((2S,3S,4S,5R,6S)-2-(4-((4-Acetyl-2,6-dimethoxyphenoxy)methyl)-1H-1,2,3-triazol-1-yl)-4,5-dihydroxy-6-(hydroxymethyl)tetrahydro-2H-pyran-3-yl)acetamide], the “mortality rate of Artemia salina nauplii” value (Artemia salina nauplii [1]) was “not significantly different from negative control; also recorded: non-toxic”, the EC50 [2, 6] was 20.7 µM and the percentage of settlement [2] was no more than 40%. For the same compound, the LC50 at 15 h [3] was greater than 200 µM.

For COc1ccc(-n2cc(COc3ccc(C(C)=O)c(O)c3)nn2)cc1 [Compound 8b, 1-(2-Hydroxy-4-((1-(4-methoxyphenyl)-1H-1,2,3-triazol-4-yl)methoxy)phenyl)ethan-1-one], the melting point was 115.1 to 117.5 °C.

COc1cc(C(C)=O)cc(OC)c1OCc1cn(-c2ccc(Cl)cc2)nn1 [Compound 6a, 1-(4-((1-(4-Chlorophenyl)-1H-1,2,3-triazol-4-yl)methoxy)-3,5-dimethoxyphenyl)ethan-1-one] showed an EC50 [2, 6] of 28.9 µM, a percentage of settlement [2] of no more than 40% and an LC50 at 15 h [3] greater than 200 µM.

With COc1cc(C(C)=O)cc(OC)c1OCc1cn(Cc2ccc(C#N)cc2)nn1 [Compound 3a, 4-((4-((4-Acetyl-2,6-dimethoxyphenoxy)methyl)-1H-1,2,3-triazol-1-yl)methyl)benzonitrile] the melting point was 149.5 to 149.8 °C.

Compound CC(=O)c1ccc(OCc2cn(-c3ccc(Br)cc3)nn2)cc1O [Compound 5b, 1-(4-((1-(4-Bromophenyl)-1H-1,2,3-triazol-4-yl)methoxy)-2-hydroxyphenyl)ethan-1-one] has a melting point of 183.3 to 184.8 °C.

CC(=O)c1ccc(OCc2cn(-c3ccc(F)cc3)nn2)cc1O [Compound 4b, 1-(4-((1-(4-Fluorophenyl)-1H-1,2,3-triazol-4-yl)methoxy)-2-hydroxyphenyl)ethan-1-one] showed a melting point of 145.9 to 148 °C, an EC50 [4, 7] of 105 µM and an EC50 [4, 8] of 34.4 µg/mL. The “R. litoralis biofilm growth inhibition” value [4] was “significantly inhibit”.

In the case of N#Cc1c(-c2ccc(Cl)cc2)[nH]c(C(F)(F)F)c1Br [ECONEA®], the “lethality to Artemia salina” value (Artemia salina nauplii [5]) is listed as 100%.

Work on COc1cc(C(C)=O)cc(OC)c1OCc1cn(-c2ccc(F)cc2)nn1 [Compound 4a, 1-(4-((1-(4-Fluorophenyl)-1H-1,2,3-triazol-4-yl)methoxy)-3,5-dimethoxyphenyl)ethan-1-one] yielded a melting point of 160 to 160.5 °C.

CC(=O)c1ccc(OCc2cn(Cc3ccc(C#N)cc3)nn2)cc1O [Compound 3b, 4-((4-((4-Acetyl-3-hydroxyphenoxy)methyl)-1H-1,2,3-triazol-1-yl)methyl)benzonitrile] showed a melting point of 153.8 to 155.6 °C, an EC50 [4, 7] of 49.8 µM and an EC50 [4, 8] of 17.4 µg/mL. For the same compound, the “R. litoralis biofilm growth inhibition” value [4] was “significantly inhibit”.

COc1cc(C(C)=O)cc(OC)c1OCc1cn(-c2ccc(Br)cc2)nn1 [Compound 5a, 1-(4-((1-(4-Bromophenyl)-1H-1,2,3-triazol-4-yl)methoxy)-3,5-dimethoxyphenyl)ethan-1-one] showed a melting point of 159.1 to 160.4 °C.

CC(=O)c1ccc(OCc2cn(-c3ccc(Cl)cc3)nn2)cc1O [Compound 6b, 1-(4-((1-(4-Chlorophenyl)-1H-1,2,3-triazol-4-yl)methoxy)-2-hydroxyphenyl)ethan-1-one] showed a melting point of 157 to 159.1 °C.

In the case of CC(=O)c1ccc(OCc2cn(CCCO)nn2)cc1O [Compound 7b, 1-(2-Hydroxy-4-((1-(3-hydroxypropyl)-1H-1,2,3-triazol-4-yl)methoxy)phenyl)ethan-1-one], the melting point is reported as 69.2 to 70.5 °C, the “EC50 (µM), R. litoralis growth” value ([4]; dose-response) is reported as “not possible to estimate” and the “R. litoralis biofilm growth inhibition” value [4] is reported as “significantly inhibit”.
